# Measurements published in patent US9568449B2, “Dielectric spectroscopy methods and apparatus” (Bend Research, Inc., priority 2012, dated 2017).
# Experiments:
# [1] = system: first population of cells; experiment: Viability of a cell population after apoptosis induction with staurosporine; assay type: cell-based; details: 1 μM staurosporine added at day 14 of cell growth; compared with untreated control population; FIG. 19B
# Method: FIG. 19A is a chart 1900 that illustrates the viability of cells (along the y-axis) in two different cell populations over a period of time (along the x-axis) in an example experiment corresponding to the method of FIG. 18. As shown, a first line 1910 indicates the viability of a first population of cells, which has apoptosis induced using addition of a staurosporine agent. In this case, a 1 μM concentration of staurosporine was used. A second line 1915 indicates the viability of a second population of cells, which is a control population that is not induced using a staurosporine agent.
# At a designated time period, apoptosis is induced in the first population of cells by adding an apoptosis inducing agent to the environment.
# FIG. 19B is a chart 1930 that illustrates viable cell density (VCD) (left y-axis) and cell viability percentage (right y-axis) plotted over time (x-axis) for the first and second measurements of the first and second populations of cells received at process block 1810 and 1820.
# [2] = system: first population of cells; experiment: Dielectric spectroscopy (normalized capacitance versus frequency) of an apoptosis-induced cell population; assay type: cell-based; details: from time of staurosporine addition (day 14) to 60 hours after addition; compared with slight drift in control; FIG. 19D
# From the text: At process block 1810, data representing a number of measurements of an electrical property of a first population of cells are received. The measurements can be obtained by applying a frequency-varying signal (e.g., a sine wave having a frequency that is varied across a selected frequency range, or at two or more selected frequencies) to the population of cells while measuring an electrical property such as permittivity or capacitance. A number of selected frequencies can be used, for example, frequencies between 50 kHz and 10 MHz. The measured permittivity of the population of cells will vary depending on the frequency of the applied signal used to measure permittivity. For example, the permittivity can range from a high measurement of 4×10^−9 Farads per meter (F/m) at a low frequency of 50 kHz to a low measurement of 1×10^−11 F/m at a high frequency of 10 MHz. […] The cells can be mammalian cells (e.g. from the CHO or NS0 cell lines) suspended in a nutrient solution.
# At process block 1830, the first set of measurements for the first population of cells and the second set of measurements for the second population of cells are compared.
# The chart 1950 of FIG. 19D illustrates the first set of measurements obtained from the first population of cells that has an apoptosis-inducing agent added at day 14 of cell growth.
structure (smiles),measurement,setting,value
CN[C@@H]1C[C@H]2O[C@@](C)([C@@H]1OC)n1c3ccccc3c3c4c(c5c6ccccc6n2c5c31)C(=O)NC4 [staurosporine],cell viability percentage,[1],declining
same,viable cell density (VCD),[1],declining
same,shift of normalized capacitance versus frequency curve,[2],more substantial drift to the right
